# Results reported in US10130651B2, “RNAi Therapy for Hepatitis B Virus Infection” (Arrowhead Pharmaceuticals, Inc., priority 2015, dated 2018).
# Ends that are not written are not given here.
# What was measured:
# Type in all cases: in vivo, NOD-SCID mice (pHBV model)
# [1] = Clinical chemistry (liver and renal function) in pHBV model mice; conditions: day 2 (24 hours post-injection) vs day −1
# Description: Clinical chemistry markers in mouse serum were measured using a COBAS Integra 400 (Roche Diagnostics, Indianapolis, Ind.) chemical analyzer according to the manufacturer's instructions.
# Liver and renal functions were evaluated on day −1 (pre-injection) and day 2 (24 hours post-injection).
# [2] = test system: Hepatitis B surface antigen (HBsAg), Hepatitis B Virus; assay: Serum HBsAg (ELISA) in pHBV model mice after IV MLP delivery peptide+HBV RNAi triggers (Example 7); conditions: 8 mg/kg MLP delivery peptide without HBV RNAi triggers
# Text: (§1) At day −42, 6 to 8 week old female NOD.CB17-Prkdscid/NcrCrl (NOD-SCID) mice were transiently transfected in vivo with MC-HBV1.3 by hydrodynamic tail vein injection (Yang P L et al. “Hydrodynamic injection of viral DNA: a mouse model of acute hepatitis B virus infection.” PNAS USA 2002 Vol. 99: p. 13825-13830). MC-HBV1.3 is a plasmid-derived minicircle that contains the same terminally redundant human hepatitis B virus sequence HBV1.3 as in the HBV1.3.32 transgenic mice (GenBank accession #V01460) (Guidotti L G et al. “High-level hepatitis B virus replication in transgenic mice. J Virol 1995 Vol. 69, p 6158-6169.). […] At day −21, three weeks post transfection, Hepatitis B surface antigen (HBsAg) HBsAg expression levels in serum were measured by ELISA and the mice were grouped according to average HBsAg expression levels. […]
# (§2) At various times, before and after administration of MLP delivery peptide+HBV RNAi triggers, isotonic glucose, or MLP delivery peptide alone, serum HBsAg, serum HBV DNA, or liver HBV RNA were measured. […]
# Serum was collected and diluted 10 to 2000-fold in PBS containing 5% nonfat dry milk. […] HBsAg levels were determined with a GS HBsAg EIA 3.0 kit (Bio-Rad Laboratories, Inc., Redmond, Wash.) as described by the manufacturer. […]
# [3] = test system: HBV DNA, Hepatitis B Virus; assay: Serum HBV DNA (qPCR) in pHBV model mice (Example 7); conditions: 8 mg/kg MLP delivery peptide without HBV RNAi triggers
# Text: as §1, §2
# The number of copies of HBV genomes in DNA isolated from the pHBV mouse model serum was determined by qPCR. […]
# qPCR assays were performed on a 7500 Fast or StepOne Plus Real-Time PCR system (Life Technologies). […] Quantitations of HBV DNA and recovery control plasmid were determined by qPCR reactions performed in triplicate. […]
substance,measurement,setting,value
"MLP delivery peptide: MLP SEQ ID NO: 650 (GIL MLP, L-form) reversibly masked with CDM-NAG (LIGAILKVLATGLPTLISWIKNKRKQ; also: reversibly masked with CDM-NAG)",evidence of toxicity,[1],nor was there any evidence of toxicity
same,HBsAg levels in serum,[2],comparable to levels in mice that received a single injection of isotonic glucose
same,HBV DNA levels in serum,[3],comparable to levels in mice that received a single injection of isotonic glucose
